Data published in patent US8809526B2, “Synthesis of cyclopentaquinazolines” (ONYX Pharmaceuticals, Inc., priority 2010, dated 2014).
Values after ≈ are worked out from the molar mass of the structure shown.

Experiment: physchem
Type: physicochemical
Conditions: organic solvent or mixture
Protocol: A 22 L, 3 neck flask was equipped with an overhead stirrer, a N2 inlet, and a type-J Teflon® covered thermocouple. The flask was purged with N2 and charged with the crude alcohol 12 prepared above, acetonitrile (7 L) and triethylamine (1400 mL, 10.0 mol). The batch was cooled to ˜10° C.-15° C. using a cold water bath. To the resulting yellow-green suspension was added solid TBDMSCl (1125 g, 7.50 mol), portionwise over ˜20 minutes. The addition was mildly exothermic causing the internal reaction temperature to rise to ˜20° C. After the addition was complete the reaction was stirred overnight at 20° C. under an atmosphere of N2. The following morning the reaction was judged to be >95% complete by TLC or HPLC. The dark green reaction mixture was filtered through a plasticware filter pot (24″×11″) prepacked with gravity grade silica gel (3 kg-slurried in acetonitrile) and a top and bottom layer of celite 21 (500 grams each). The filter pot was rinsed with acetonitrile (10 L, ACS grade) prior to adding the reaction mixture to the pot. Once the reaction mixture containing green solids was added, the filter pot was rinsed with acetonitrile (80 L, ACS grade), collecting 10 L cuts. The washing operation was monitored by TLC until no more product was detected in the washings. This was concentrated in vacuo to afford 2.2 kg of crude which needed to be purified further by silica gel chromatography. […]

CC(C)(C)[Si](C)(C)OCc1nc2cc3c(cc2c(=O)[nH]1)C(=O)CC3 [compound 7, 2-(t-Butyldimethylsiloxymethyl)-4,6-dioxo-3,4,7,8-tetrahydro-3H-cyclopenta[g]quinazoline]
solubility (solubility in 1:1 hexanes:ethyl acetate): 15 mg/mL (≈ 43.5 mM)
solubility (solubility in ethyl acetate): ~25 mg/mL (≈ 72.6 mM)
